Results taken from patent US20100120789A1, “Compound” (priority 2005, published 2010).

Key:
Human 11β-HSD1 [1] = molecular target: T1, Human 11β-HSD1 (Homo sapiens, UniProt P28845); assay: 11β-HSD1 HEK assay (whole HEK 293 cells stably transfected with HSD11B1, SPA); format: cell-based; parameters: expressed in transfected cells; host or cells: HEK 293; conditions: HEK293
Human 11β-HSD1 [2] = molecular target: T1, Human 11β-HSD1; assay: as above; format: cell-based; parameters: expressed in transfected cells; host or cells: HEK 293; conditions: HEK293, read-out: % INHIBITION of Human 11 β-HSD1 at 10 μM (HEK)
Protocol: 11β-HSD1 HEK Assay Protocol (Cell Based Assay)
11β-HSD1 activity is measured in whole HEK 293 cells stably transfected with the HSD11B1 gene. Cells are incubated in 96-well microplates in the presence of tritiated substrate. Enzyme activity is determined by measuring the amount of tritated product by scintillation proximity assay (SPA). Assay plates contain internal high and low controls to allow calculation of percentage inhibition.
2. When the cells are 80% confluent the medium is removed from each well. 100 μl fresh, serum-free, medium containing ^3H-cortisone and test compound in 1% DMSO is added to each well*. Control wells are also dispensed.
3. The plate is incubated at […] for the required time period.
4. 50 μl of media is removed from each well and transferred to a microplate containing 100 μl of a pre-incubated mixture of anti-cortisol antibody and SPA bead. The mixture is incubated with gentle shaking until equilibrium is reached, before transferring to a scintillation counter to establish the enzyme activity in each sample.
10 μl of compound is dispensed into each well of a 96-well microplate in 10% DMSO at 100 μM concentration. 90 μl media containing ^3H-cortisone is added to each well. The compound/media/substrate mixture is then transferred to the assay plate containing the cells.

Human 11β-HSD1 [3] = molecular target: T1, Human 11β-HSD1; assay: 11β-HSD1 HTRF assay (human liver microsome fractions, cortisol by HTRF); format: biochemical; conditions: 10 μM compound; human liver microsomes
Protocol: 11β-HSD1 HTRF Assay Protocol
The 11β-HSD Type 1 assay was carried out at room temperature in 96 well microtitre plates in a total volume of 40 μl. Assay buffer contained 30 mM Tris.HCl, 1 mM EDTA, pH 7.2. Inhibitor compounds were tested at varying concentrations at a final Dimethyl Sulphoxide concentration of 1%. Compounds were usually tested at 10 μM. The substrate mixture contained cortisone, NADPH and glucose-6-phosphate at final concentrations of 1 μM, 180 μM and 1 mM respectively. Assays were started by the addition of 10p1 human liver microsome fractions, 20 mg per ml protein, containing 11β-HSD Type 1, diluted 1 to 40 prior to use. Following mixing microtitre plates were shaken for 30 minutes. Reactions were stopped by the addition of 10 μl 1 mM Glyccheritinnic acid solution. Production of Cortisol was measured by Homogenous Time Resolved Fluorescence using a cortisol assay kit; Cisbio International Cortisol HTRF kit (62CORPEB), following the manufacturer's protocol.

T1 sequence (P28845 whole entry): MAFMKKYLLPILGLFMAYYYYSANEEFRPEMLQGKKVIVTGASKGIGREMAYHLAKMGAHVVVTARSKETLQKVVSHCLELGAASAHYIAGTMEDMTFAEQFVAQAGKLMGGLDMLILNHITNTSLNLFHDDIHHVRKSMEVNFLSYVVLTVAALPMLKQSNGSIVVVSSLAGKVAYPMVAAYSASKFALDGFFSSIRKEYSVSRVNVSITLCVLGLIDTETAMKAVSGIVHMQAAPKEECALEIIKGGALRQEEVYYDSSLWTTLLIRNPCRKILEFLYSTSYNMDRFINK

SMILES | inhibition at 1 µM (Human 11β-HSD1 [1]) | inhibition at 10 µM (Human 11β-HSD1 [2]) | inhibition at 10 µM (Human 11β-HSD1 [3])
NC(=O)c1ccc(COCC(=O)C23CC4CC(CC(C4)C2)C3)cc1 [Compound 17] | 63% | – | –
CCCc1ccc(S(=O)(=O)NC23CC4CC(CC(C4)C2)C3)cc1 [compound 1341] | – | 20 to 60% | 20 to 60%
O=S(=O)(NC12CC3CC(CC(C3)C1)C2)c1ccc(-c2ccccc2)cc1 [compound 1344] | – | 20 to 60% | 20 to 60%
CCCc1ccc(S(=O)(=O)NCC23CC4CC(CC(C4)C2)C3)cc1 [compound 1368] | – | 20 to 60% | > 60%
Cc1nc2c(NC(=O)C34CC5CC(CC(C5)C3)C4)c(C)ccc2s1 [compound 1372] | – | 20 to 60% | 20 to 60%
Cc1nc2c(Cl)c(NC(=O)C34CC5CC(CC(C5)C3)C4)ccc2s1 [compound 1373] | – | > 60% | 20 to 60%
O=C(NCc1cccs1)C12CC3CC(CC(C3)C1)C2 [compound 1374] | – | > 60% | > 60%
O=C(NCCc1cccs1)C12CC3CC(CC(C3)C1)C2 [compound 1375] | – | > 60% | > 60%
Cc1nc2cc(NCC(=O)C34CC5CC(CC(C5)C3)C4)ccc2s1 [compound 1487] | – | > 60% | > 60%
O=S(=O)(Cc1ccc(Cl)cc1)NC12CC3CC(CC(C3)C1)C2 [compound 1499] | – | < 20% | 20 to 60%
O=S(=O)(Cc1cccc(Cl)c1)NC12CC3CC(CC(C3)C1)C2 [compound 1500] | – | < 20% | 20 to 60%
O=C(CNc1ccc(Cl)cc1)C12CC3CC(CC(C3)C1)C2 [compound 1535] | – | > 60% | > 60%
Cc1ccc(SCC(=O)C23CC4CC(CC(C4)C2)C3)cc1 [compound 1537] | – | > 60% | > 60%
O=C(CSc1cc(Cl)ccc1Cl)C12CC3CC(CC(C3)C1)C2 [compound 1538] | – | > 60% | > 60%
O=C(CS(=O)(=O)c1ccc(Cl)cc1)C12CC3CC(CC(C3)C1)C2 [compound 1539] | – | 20 to 60% | > 60%
O=C(NCc1ccccn1)C12CC3CC(CC(C3)C1)C2 [compound 1540] | – | 20 to 60% | > 60%
O=C(NCCc1ccccn1)C12CC3CC(CC(C3)C1)C2 [compound 1541] | – | > 60% | > 60%
O=C(NCc1cccnc1)C12CC3CC(CC(C3)C1)C2 [compound 1542] | – | > 60% | > 60%
O=C(NCCc1cccnc1)C12CC3CC(CC(C3)C1)C2 [compound 1543] | – | < 20% | > 60%
COc1ccc(NC(=O)C23CC4CC(CC(C4)C2)C3)cn1 [compound 1544] | – | 20 to 60% | > 60%
Cc1cnc(CNC(=O)C23CC4CC(CC(C4)C2)C3)cn1 [compound 1545] | – | 20 to 60% | > 60%
Cc1ccc(S(=O)(=O)CC(=O)C23CC4CC(CC(C4)C2)C3)cc1 [compound 1562] | – | > 60% | > 60%
O=C(C[S+]([O-])c1cc(Cl)ccc1Cl)C12CC3CC(CC(C3)C1)C2 (stereo not drawn) [compound 1563] | – | > 60% | > 60%
O=C(CC12CC3CC(CC(C3)C1)C2)NCc1cccs1 [compound 1564] | – | > 60% | > 60%
O=C(CC12CC3CC(CC(C3)C1)C2)NCc1ccccn1 [compound 1565] | – | 20 to 60% | > 60%

SMILES | inhibition at 1 µM (Human 11β-HSD1 [1]) | inhibition at 10 µM (Human 11β-HSD1 [2]) | inhibition at 10 µM (Human 11β-HSD1 [3])
O=C(COc1ccc(-c2ccccc2)cc1)C12CC3CC(CC(C3)C1)C2 [compound 1567] | – | > 60% | > 60%
COc1ccc(OCC(=O)C23CC4CC(CC(C4)C2)C3)cc1OC [compound 1568] | – | > 60% | > 60%
CC(=O)Nc1ccc(OCC(=O)C23CC4CC(CC(C4)C2)C3)cc1 [compound 1569] | – | > 60% | > 60%
O=C(CC12CC3CC(CC(C3)C1)C2)NCCc1cccs1 [compound 1570] | – | > 60% | > 60%
Cc1nc2c(NC(=O)CC34CC5CC(CC(C5)C3)C4)c(C)ccc2s1 [compound 1572] | – | < 20% | > 60%
O=S(=O)(NC12CC3CC(CC(C3)C1)C2)c1cccs1 [compound 1573] | – | – | > 60%
O=S(=O)(NC1C2CC3CC(C2)CC1C3)c1cccs1 (stereo not drawn) [compound 1574] | – | 20 to 60% | > 60%
O=S(=O)(NCC12CC3CC(CC(C3)C1)C2)c1cccs1 [compound 1575] | – | < 20% | > 60%
CN(Cc1cccs1)C(=O)C12CC3CC(CC(C3)C1)C2 [compound 1576] | – | – | > 60%
Cn1cnc(CNC(=O)C23CC4CC(CC(C4)C2)C3)c1 [compound 1577] | – | > 60% | > 60%
Cn1cccc1CNC(=O)C12CC3CC(CC(C3)C1)C2 [compound 1578] | – | > 60% | > 60%
O=C(NCc1ccco1)C12CC3CC(CC(C3)C1)C2 [compound 1579] | – | > 60% | > 60%
O=C(NCCCn1ccnc1)C12CC3CC(CC(C3)C1)C2 [compound 1580] | – | 20 to 60% | 20 to 60%
O=C(NCCc1c[nH]c2ccccc12)C12CC3CC(CC(C3)C1)C2 [compound 1581] | – | > 60% | > 60%
CN1CCCC1CCNC(=O)C12CC3CC(CC(C3)C1)C2 (stereo not drawn) [compound 1597] | – | < 20% | > 60%
O=C(NCCN1CCCCC1)C12CC3CC(CC(C3)C1)C2 [compound 1598] | – | > 60% | > 60%
Cc1ccc(-c2noc(C34CC5CC(CC(C5)C3)C4)n2)cc1 [compound 1599] | – | 20 to 60% | 20 to 60%
O=C(COc1ccc(Cl)cc1)C12CC3CC(CC(C3)C1)C2 [compound 1610] | – | > 60% | > 60%
O=C(COc1cc(Cl)ccc1Cl)C12CC3CC(CC(C3)C1)C2 [compound 1618] | – | > 60% | > 60%
Cc1ccc(OCC(=O)C23CC4CC(CC(C4)C2)C3)cc1 [compound 1619] | – | > 60% | > 60%
O=C(CSCc1ccc(Cl)cc1)C12CC3CC(CC(C3)C1)C2 [compound 1621] | – | > 60% | > 60%
O=C(COCc1ccc(Cl)cc1)C12CC3CC(CC(C3)C1)C2 [compound 1626] | – | 20 to 60% | > 60%
Clc1ccc(-c2noc(C34CC5CC(CC(C5)C3)C4)n2)cc1 [compound 1627] | – | – | 20 to 60%
O=C(C[S+]([O-])Cc1ccc(Cl)cc1)C12CC3CC(CC(C3)C1)C2 (stereo not drawn) [compound 1628] | – | > 60% | > 60%
O=C(CS(=O)(=O)Cc1ccc(Cl)cc1)C12CC3CC(CC(C3)C1)C2 [compound 1632] | – | > 60% | > 60%
